Experiment [1] deals with β-catenin dependent TCF/LEF transcriptional activity. The experiment can be described thus: β-Catenin Stabilization Protocol (β-lactamase reporter assay in Jurkat cells). The class given is cell-based. As to conditions: Homo sapiens, 460/530 ratio, read-out: Beta Catenin IC50. The source says:
GSK-3 phosphorylation of β-catenin targets it to the proteosome for degradation. Inhibition of GSK-3 results in accumulation of β-catenin in the cytosol of cells which through interaction with the transcription factor TCF/LEF translocates to the nucleus and drives the transcription of Wnt-dependent genes. The assay is designed to determine the level of β-catenin dependent TCF/LEF transcriptional activity in a quantitative manner through the use of a β-lactamase reporter assay in Jurkat cells dosed with a compound.
Jurkat β-catenin cells are starved overnight in assay media (1% FBS, 1× Penstrep, RPMI) in the flask. The next day Jurkat β-catenin cells are seeded in 96 well flat bottom plates at a density of 50,000 cells/well in assay media in a volume of 100 ul. The compound is added to the well at a final DMSO concentration of 0.75% and incubated at 37° C. o/n. The next day, 20 uL of 6×CCF4 dye is added to the wells and incubated at room temperature for 1-2 hours. Plates are read on the Cytofluor 4000 series multiwell plate reader and the 460/530 ratio is determined.
(Reporter assays use an easily measured gene product as a stand-in for the process of interest.)

The target of the next experiment is T1, GSK3β TYR 216 (Homo sapiens, UniProt P49841).
T1 construct: western blotting of Jurkat cells dosed with the compounds; endogenous in cells; host or cells: Jurkat cells
T1 sequence (P49841 whole entry): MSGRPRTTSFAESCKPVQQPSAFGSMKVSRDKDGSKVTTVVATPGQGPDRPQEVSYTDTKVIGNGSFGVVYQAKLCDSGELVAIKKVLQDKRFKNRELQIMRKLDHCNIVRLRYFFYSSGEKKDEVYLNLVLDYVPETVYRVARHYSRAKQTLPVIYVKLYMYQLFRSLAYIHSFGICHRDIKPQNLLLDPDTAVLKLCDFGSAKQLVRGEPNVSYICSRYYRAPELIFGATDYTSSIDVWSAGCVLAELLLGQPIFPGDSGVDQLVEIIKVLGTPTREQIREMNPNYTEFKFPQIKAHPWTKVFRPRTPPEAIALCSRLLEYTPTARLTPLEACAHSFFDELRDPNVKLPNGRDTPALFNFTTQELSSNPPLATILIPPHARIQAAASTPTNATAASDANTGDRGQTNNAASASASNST
The experiment can be described thus: GSK3β p-TYR Inhibition Assay (western blotting of Jurkat cells). Type of experiment: cell-based. As to conditions: western blot, read-out: GSK3b pTYR 216: IC50. As to the method:
(§1) Compounds are screened for their ability to inhibit the phosphorylation of tyrosine (TYR) residues through the use of western blotting of Jurkat cells dosed with the compounds. The phosphorylation of the specific TYR residues tested are GSK3α TYR 279 and GSK3β TYR 216.
(§2) Jurkat cells are seeded at a density of 2×10^5 cells/well in a 12 well dish in starvation media (RPMI+1% FBS+P/S). Following starvation for 16 hours, the compound is dosed into each well at a final DMSO concentration of 0.3% and cells are incubated o/n at 37° C. 5% CO2. The next day, cells are spun down at 1500 rpm, washed with PBS, and lysed in 100 uL Laemli sample buffer with β-mercaptoethanol.
(§3) 15 microliters (uL) of cell lysates are loaded onto a 10% tris-glycine gel and run at 120 v for 2 hours or until dye front runs off of the gel. The protein is then transferred onto a PVDF membrane at 100 v for 60 min. PBST (PBS containing 0.1% Tween 20, such as 1 ml Tween per 1 L of PBS) is then made up and used for all washes and antibody incubations. The blot is blocked in 5% nonfat milk PBST for one hour.
(§4) The primary antibody (GSK-3α/β pTYR 279/216 at 1:1000 dilution Upstate cat#05-413) is then added in […] PBST overnight at 4° C. with gentle rocking. The blot is then washed in PBST for 5 min. This is then repeated 4 times. […]
(In general: A western blot detects proteins with antibodies after separation by electrophoresis.)

The next experiment concerns the target T2, GSK3α TYR 279 (Homo sapiens, UniProt P49840).
T2 construct: western blotting of Jurkat cells dosed with the compounds; endogenous in cells; host or cells: Jurkat cells
In words: GSK-3α p-TYR Inhibition Assay (western blotting of Jurkat cells). As to conditions: western blot, read-out: GSK3a pTYR 279: IC50. Type of experiment: cell-based. As to the method: as §1, §2, §3, §4

The next experiment concerns the target T3, GSK-3β (AA 1-420) (Homo sapiens, UniProt P49841).
T3 construct: GSK-3β (AA 1-420)
In words: GSK-3 Inhibition Assay (standard coupled enzyme system). The settings on record: 20 μM ATP, 300 μM peptide, 20 nM GSK-3β, 30° C. The class given is biochemical. As to the method: Compounds of the present invention were screened for their ability to inhibit GSK-3β (AA 1-420) activity using a standard coupled enzyme system (Fox et al., Protein Sci. 1998, 7, 2249). Reactions were carried out in a solution containing 100 mM HEPES (pH 7.5), 10 mM MgCl2, 25 mM NaCl, 300 μM NADH, 1 mM DTT and 1.5% DMSO. Final substrate concentrations in the assay were 20 μM ATP (Sigma Chemicals, St Louis, Mo.) and 300 μM peptide (American Peptide, Sunnyvale, Calif.). Reactions were carried out at 30° C. and 20 nM GSK-3β. Final concentrations of the components of the coupled enzyme system were 2.5 mM phosphoenolpyruvate, 300 μM NADH, 30 μg/ml pyruvate kinase and 10 μg/ml lactate dehydrogenase.
An assay stock buffer solution was prepared containing all of the reagents listed above with the exception of ATP and the test compound of the present invention. The assay stock buffer solution (175 μl) was incubated in a 96 well plate with 5 μl of the test compound of the present invention at final concentrations spanning 0.002 μM to 30 μM at 30° C. for 10 min. […] Rates of reaction were obtained using a Molecular Devices Spectramax plate reader (Sunnyvale, Calif.) over 10 min at 30° C. The Ki values were determined from the rate data as a function of inhibitor concentration.

Experiment [2] deals with rat brains after transient middle cerebral artery occlusion. As to conditions: rat brains after transient MCAO; cited from earlier work.

A word on the IC50: it is the concentration that inhibits the measured activity by half. In general, Ki refers to the equilibrium dissociation constant of an inhibitor or competing ligand from its target. A higher Ki goes with a looser hold on the target.

T3 sequence (P49841 whole entry, species assumed, the tested form may be a part): as the sequence (P49841 whole entry) above
T2 sequence (P49840 whole entry): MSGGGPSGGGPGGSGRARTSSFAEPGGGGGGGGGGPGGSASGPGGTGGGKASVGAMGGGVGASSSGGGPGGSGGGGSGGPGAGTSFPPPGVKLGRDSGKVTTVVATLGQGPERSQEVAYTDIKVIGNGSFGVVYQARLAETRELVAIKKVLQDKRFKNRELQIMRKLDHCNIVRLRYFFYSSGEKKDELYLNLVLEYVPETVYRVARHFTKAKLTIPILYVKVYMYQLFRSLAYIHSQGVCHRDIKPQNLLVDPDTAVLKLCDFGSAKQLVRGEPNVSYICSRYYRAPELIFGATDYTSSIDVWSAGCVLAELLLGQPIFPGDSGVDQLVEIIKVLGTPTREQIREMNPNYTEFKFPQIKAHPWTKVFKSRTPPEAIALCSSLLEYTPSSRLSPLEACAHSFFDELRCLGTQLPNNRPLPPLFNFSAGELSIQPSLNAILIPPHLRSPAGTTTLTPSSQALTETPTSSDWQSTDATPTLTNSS

Consider `CCc1c(C)nc(-c2ccccc2Cl)nc1Nc1n[nH]c2ncc(F)cc12` [Compound I-2], for which the IC50 in experiment [1] was 940 nM; on GSK3β TYR 216, 30 nM; at GSK3α TYR 279, 2 nM. The compound further returned a Ki at GSK-3β (AA 1-420) of less than 5 nM.

For the compound “IGF-1: insulin growth factor-1, a known GSK-3 inhibitor”, in experiment [2], the infarct size result is “reduced infarct size”.

Values taken from US8518953B2, “Aminopyrimidines useful as inhibitors of protein kinases” (Vertex Pharmaceuticals Incorporated, priority 2007, dated 2013).
